# In paper PMC11246513, “Exploring bat-inspired cyclic tryptophan diketopiperazines as ABCB1 Inhibitors” (Communications Chemistry, 2024):
# Assays:
# [1] = target: T1, ABCB1 (Homo sapiens, UniProt P08183); type: biochemical; set-up: human ABCB1-FLAG, purified and reconstituted into egg lecithin liposome
# [2] = target: T2, bat ABCB1 (Pteropus alecto, UniProt L5JS44); test: rhodamine […] efflux inhibition, flow cytometry, PaKiT03 cells with ABCB1 KO control; type: cell-based
# T2 construct: gene PAL_GLEAN10013639; endogenous ABCB1 in PaKiT03 cells
# T2 sequence (L5JS44 1-1308): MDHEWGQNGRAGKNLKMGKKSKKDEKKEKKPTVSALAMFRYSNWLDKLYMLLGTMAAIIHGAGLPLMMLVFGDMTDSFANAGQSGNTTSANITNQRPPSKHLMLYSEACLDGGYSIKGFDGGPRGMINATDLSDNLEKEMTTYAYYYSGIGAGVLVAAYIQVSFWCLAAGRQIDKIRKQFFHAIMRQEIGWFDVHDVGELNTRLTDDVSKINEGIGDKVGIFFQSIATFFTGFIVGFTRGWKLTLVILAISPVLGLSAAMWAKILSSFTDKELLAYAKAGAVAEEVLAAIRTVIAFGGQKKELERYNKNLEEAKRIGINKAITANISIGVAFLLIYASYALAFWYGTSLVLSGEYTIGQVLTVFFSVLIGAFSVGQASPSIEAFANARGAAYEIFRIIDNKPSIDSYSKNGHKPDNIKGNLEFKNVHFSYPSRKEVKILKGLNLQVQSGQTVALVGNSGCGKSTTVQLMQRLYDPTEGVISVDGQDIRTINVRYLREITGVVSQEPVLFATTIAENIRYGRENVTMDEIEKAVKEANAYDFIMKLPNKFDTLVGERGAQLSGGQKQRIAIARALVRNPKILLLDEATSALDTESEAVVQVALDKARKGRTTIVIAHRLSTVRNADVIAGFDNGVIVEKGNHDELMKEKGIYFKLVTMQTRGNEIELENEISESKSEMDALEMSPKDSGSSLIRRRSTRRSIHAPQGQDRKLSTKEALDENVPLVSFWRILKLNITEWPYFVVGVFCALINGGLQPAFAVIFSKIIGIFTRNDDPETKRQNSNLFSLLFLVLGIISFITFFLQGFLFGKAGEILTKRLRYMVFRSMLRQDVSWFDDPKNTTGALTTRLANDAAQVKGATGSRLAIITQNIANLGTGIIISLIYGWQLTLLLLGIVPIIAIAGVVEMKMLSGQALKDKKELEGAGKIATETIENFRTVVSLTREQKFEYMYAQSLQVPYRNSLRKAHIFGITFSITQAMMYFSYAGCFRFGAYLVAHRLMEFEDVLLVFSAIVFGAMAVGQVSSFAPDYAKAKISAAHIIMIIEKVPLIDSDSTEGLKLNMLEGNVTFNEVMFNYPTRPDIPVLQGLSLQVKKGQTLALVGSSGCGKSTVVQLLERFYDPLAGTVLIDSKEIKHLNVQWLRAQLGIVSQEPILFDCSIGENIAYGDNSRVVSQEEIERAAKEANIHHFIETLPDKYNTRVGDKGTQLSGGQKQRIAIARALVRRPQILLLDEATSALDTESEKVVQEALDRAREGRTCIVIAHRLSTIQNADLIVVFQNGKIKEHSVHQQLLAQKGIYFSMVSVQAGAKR
# [3] = target: T1, ABCB1; test: rhodamine […] efflux inhibition, flow cytometry, HEK293T ABCB1 cells; type: cell-based; set-up: human ABCB1 (ABCB1-TEV-His-FLAG) stably expressed in HEK293T
# [4] = target: T2, bat ABCB1; test: rhodamine […] efflux inhibition, flow cytometry, PaKiT03 cells; type: cell-based
# T1 sequence (P08183 whole entry): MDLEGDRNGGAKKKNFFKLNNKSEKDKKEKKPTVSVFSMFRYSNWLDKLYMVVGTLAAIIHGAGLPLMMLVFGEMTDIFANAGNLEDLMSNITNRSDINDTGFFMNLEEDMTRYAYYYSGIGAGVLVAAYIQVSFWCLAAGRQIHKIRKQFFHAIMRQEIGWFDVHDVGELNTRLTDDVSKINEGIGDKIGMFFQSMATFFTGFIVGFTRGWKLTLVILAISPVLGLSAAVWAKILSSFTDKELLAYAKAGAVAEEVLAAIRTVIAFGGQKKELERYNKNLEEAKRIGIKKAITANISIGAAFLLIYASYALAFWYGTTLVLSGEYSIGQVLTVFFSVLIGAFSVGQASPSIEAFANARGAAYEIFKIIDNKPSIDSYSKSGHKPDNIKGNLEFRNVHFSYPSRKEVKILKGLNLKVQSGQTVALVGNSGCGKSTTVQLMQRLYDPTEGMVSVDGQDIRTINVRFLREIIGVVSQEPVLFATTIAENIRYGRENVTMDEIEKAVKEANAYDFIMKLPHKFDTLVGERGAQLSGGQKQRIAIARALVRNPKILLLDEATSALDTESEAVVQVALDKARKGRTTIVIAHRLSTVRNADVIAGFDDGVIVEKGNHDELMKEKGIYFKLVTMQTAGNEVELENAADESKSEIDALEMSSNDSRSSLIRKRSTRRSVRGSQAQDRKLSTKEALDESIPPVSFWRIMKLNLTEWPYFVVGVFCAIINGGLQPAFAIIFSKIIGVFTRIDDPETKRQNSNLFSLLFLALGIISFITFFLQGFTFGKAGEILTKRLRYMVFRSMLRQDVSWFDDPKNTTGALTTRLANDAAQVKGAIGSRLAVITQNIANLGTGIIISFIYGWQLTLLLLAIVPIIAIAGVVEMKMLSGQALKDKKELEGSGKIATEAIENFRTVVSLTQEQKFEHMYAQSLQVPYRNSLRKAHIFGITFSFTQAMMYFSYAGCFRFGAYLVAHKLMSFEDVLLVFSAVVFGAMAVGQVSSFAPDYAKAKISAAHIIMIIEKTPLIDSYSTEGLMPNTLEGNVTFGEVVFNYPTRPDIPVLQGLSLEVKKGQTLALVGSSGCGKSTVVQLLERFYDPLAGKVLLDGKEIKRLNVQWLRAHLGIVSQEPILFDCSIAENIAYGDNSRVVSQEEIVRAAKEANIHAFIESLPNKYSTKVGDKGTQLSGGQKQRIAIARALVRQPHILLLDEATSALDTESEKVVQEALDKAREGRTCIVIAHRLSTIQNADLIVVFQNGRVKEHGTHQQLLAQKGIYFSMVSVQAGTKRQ
Compound,ATPase stimulation of purified reconstituted ABCB1 (ADP by HPLC); supported by d [1],IC50 [2] [nM],IC50 [3] [nM],IC50 [4] [nM]
Cn1cc(C[C@@H]2NC(=O)[C@H](Cc3cn(C)c4ccccc34)NC2=O)c2ccccc21 [Cyclo-(L-1-methyl-Trp-L-1-methyl-Trp)],Cyclo-(L-1-methyl-Trp-L-1-methyl-Trp) consumed larger amounts of ATP than Cyclo-(L-Trp-L-Trp) in the in vitro ATPase assay,,,
O=C1N[C@@H](Cc2c[nH]c3ccccc23)C(=O)N2[C@H]1C[C@@]1(Cc3ccccc3)c3ccccc3N(Cc3ccccc3)[C@@H]21 [C3N-Dbn-Trp2],,900,5900,
O=C1N[C@@H](Cc2c[nH]c3ccccc23)C(=O)N[C@H]1Cc1c[nH]c2ccccc12 [Cyclo-(L-Trp-L-Trp)],~ 2 mM,,,
COc1cc2c(cc1OC)CN(CCc1ccc(NC(=O)c3cc(OC)c(OC)cc3NC(=O)c3cnc4ccccc4c3)cc1)CC2 [tariquidar],,,16,2
